Holding throughout (experiment): DTP human tumour cell line panel, 48 h
For test [1], the system named is U-251.
Test [2] has as its system M14.
Test [3] deals with COLO 205.
In test [4] the test system is RXF 393.
Test [5] has as its system PC-3.
The test system of test [6] is SK-MEL-28.
In test [7] the test system is UACC-257.
Test [8] deals with NCI-H226.
Test [9] relates to SK-MEL-5.
For test [10], the system named is HCT-15.
The test system of test [11] is OVCAR-5.
The test system of test [12] is Hs-578T.
Test [13] has as its system HOP-92.
Test [14] deals with T47D.
For test [15], the system named is HT-29.
For test [16], the system named is NCI/ADR-RES.
The test system of test [17] is SNB-19.
For test [18], the system named is A498.
Test [19] relates to NCI-H522.
Test [20] has as its system CCRF-CEM.

Six molecules from ChEMBL document CHEMBL1201862, “PubChem BioAssay data set” (2004) can be followed below.

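Step 1: Grow cells in 96-well plates. Step 2: Expose to compound for 48 hours at 5 concentrations. Step 3: Interpolate endpoints linearly; if unreached, use highest concentration. The concentration for 50% growth inhibition is given as GI50.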 Active and inactive are the calls of the source. Cut-off read from the data, not from the text of the source: active = GI50 up to about 1.1 µM and inactive = higher.

What is called GI50 is the concentration giving 50% growth inhibition. Turning to `CC(=O)OCC(=O)O[C@@H]1[C@H]2[C@@H](OC(=O)c3ccccc3)[C@@H](C)C[C@]2(O)[C@H](OC(C)=O)[C@@]2(C)C(OC(C)=O)[C@]1(OC(C)=O)C[C@H]1C(=O)C(C)(C)C[C@@H]12` (stereo not given in full), the GI50 in [1] was > 50 µM (inactive); in test [2], > 50 µM (inactive); in test [3] it was 12.8 µM (inactive); in test [4] it was > 50 µM (inactive); in [5] it was > 47.9 µM (inactive); in test [6], > 50 µM (inactive). Moreover, the GI50 in test [7] was > 50 µM (inactive); in test [8], > 50 µM (inactive); in test [9] it was 31 µM (inactive); in [10], greater than 47.1 µM; in test [11] it was > 50 µM (inactive); in test [12], > 26.9 µM (inactive). In addition, the GI50 is > 31.7 µM (inactive) in test [13]; > 50 µM (inactive) in test [14]; 25.8 µM (inactive) in test [15]; > 50 µM (inactive) in test [16]; > 50 µM (inactive) in test [17]; 29.1 µM (inactive) in test [18]. Further, the results for the GI50 in [19] and in test [20] were > 50 µM (inactive) and > 11.2 µM (inactive), respectively.
`CCOc1cnc(C(O)(c2ccccc2)c2ccccc2)o1`: the GI50 in [1], in [2], in test [3], in test [4], in test [5] and in test [6] was > 100 µM (inactive) throughout. For the same molecule, the GI50 is > 100 µM (inactive) in test [7]; > 100 µM (inactive) in test [8]; > 100 µM (inactive) in test [9]; 77.1 µM in test [10]; > 100 µM (inactive) in test [11]; > 100 µM (inactive) in test [12]. In addition, the GI50 was 58.9 µM (inactive) in [13]; > 100 µM (inactive) in test [14]; > 100 µM (inactive) in test [15]; > 100 µM (inactive) in test [16]; > 100 µM (inactive) in test [17]; > 100 µM (inactive) in test [18]. In addition, the GI50 in [19] and in [20] was > 100 µM (inactive) throughout.
On to `O=C(O)c1c(CC(Cc2ccccc2)C(=O)O)ccc2c1CCC2` (stereo not given), for which the GI50 in test [1] was > 100 µM (inactive); in test [2], > 10 µM (inactive); in test [3] it was > 100 µM (inactive); in [4] it was > 100 µM (inactive); in test [5], > 100 µM (inactive); in test [6] it was > 100 µM (inactive). In addition, the GI50 in test [7] is > 100 µM (inactive); in test [8], > 100 µM (inactive); in [9], > 100 µM (inactive); in test [10], greater than 100 µM; in test [11], > 100 µM (inactive); in test [12] it was > 100 µM (inactive). Also, the GI50 in test [13] was > 100 µM (inactive); in [14], 66.5 µM (inactive); in test [15], > 100 µM (inactive); in [16], > 100 µM (inactive); in [17], > 100 µM (inactive); in [18], > 100 µM (inactive). Further, the GI50 in test [19] and in test [20] was > 100 µM (inactive) throughout.
Consider `Cn1c2c(c3c(=O)[nH]ncc31)Cc1ccccc1-2`, for which the GI50 in [1] was 13.5 µM (inactive); in test [2], 15.6 µM (inactive); in test [3], 10.9 µM (inactive); in test [4], 15.5 µM (inactive); in test [5] it was 21.5 µM (inactive); in test [6], 24.4 µM (inactive). Besides, the GI50 is 10.8 µM (inactive) in [7]; 13.8 µM (inactive) in test [8]; 12.2 µM (inactive) in [9]; 11.1 µM in [10]; 31.1 µM (inactive) in [11]; 26.5 µM (inactive) in [12]. Also, the GI50 in test [13] was 25.2 µM (inactive); in test [14] it was 25.6 µM (inactive); in [15], 9.64 µM (inactive); in test [16] it was 16 µM (inactive); in test [17], 18.2 µM (inactive); in test [18], 6.62 µM (inactive). Also, the GI50 in [19] is 17.8 µM (inactive); in [20], 9.1 µM (inactive).
With `COC(=O)C1=C(C)NC(C)=C([N+](=O)[O-])C1c1cccc(N=O)c1` (stereo not given), the GI50 in [1] is 18 µM (inactive); in test [2], 13.1 µM (inactive); in test [3] it was 15.7 µM (inactive); in test [4] it was 13.8 µM (inactive); in test [5], 17.9 µM (inactive); in [6] it was 17.9 µM (inactive). For the same molecule, the GI50 in test [7] is 12.5 µM (inactive); in test [8], 22 µM (inactive); in test [9] it was 15.6 µM (inactive); in [10] it was 14.2 µM; in [11], 16.9 µM (inactive); in test [12] it was 15.2 µM (inactive). Further, the GI50 in [13] was 2.83 µM (inactive); in test [14], 12.1 µM (inactive); in test [15], 16.8 µM (inactive); in test [16], 21 µM (inactive); in [17], 29.7 µM (inactive); in test [18], 24.4 µM (inactive). The GI50 is 1.66 µM (inactive) in test [19] and 4.83 µM (inactive) in test [20].
For `Cn1c(N)c(/C=C/C(=O)Oc2ccccc2)c(=O)n(C)c1=O`, the GI50 in [1] is 52.8 µM (inactive); in [2], > 100 µM (inactive); in test [3] it was > 100 µM (inactive); in test [4], 44.2 µM (inactive); in test [5], > 100 µM (inactive); in test [6], > 100 µM (inactive). For the same molecule, the GI50 is > 100 µM (inactive) in [7]; 47.4 µM (inactive) in [8]; > 100 µM (inactive) in test [9]; greater than 100 µM in test [10]; > 100 µM (inactive) in [11]; 36 µM (inactive) in test [12]. Further, the GI50 in test [13] is 22.3 µM (inactive); in test [14] it was 85.3 µM (inactive); in test [15], > 100 µM (inactive); in [16], 75.3 µM (inactive); in test [17], 59.3 µM (inactive); in test [18], > 100 µM (inactive). Also, the GI50 in test [19] and in test [20] was > 100 µM (inactive) each time.
